Measured values: patent US11236044B2, “Selective inhibitors of 12(S)-lipoxygenase (12-LOX) and methods for use of the same” (THE REGENTS OF THE UNIVERSITY OF MICHIGAN, priority 2018, dated 2022)
Read-outs that look alike come from different tables or passages of the source.

Assays:
[1] = Pharmacokinetic study of the inhibitors in mice blood plasma (PO and IV); assay type: in vivo; conditions: for concentration at 2 h / concentration at 4 h / concentration at 7 h: mouse, plasma, 30 mg/kg
Protocol: Pharmacokinetic Study of the Inhibitors in Mice Blood Plasma
The blood plasma concentration of compounds A1, A2, and A4 in mice was determined following per os, oral compound administration (“PO”) and intravenous (“IV”) administration
Calibration curve. The concentration range was evaluated from 2.5-5000 ng/ml for compound A2, 1-5000 ng/ml for compound A4, and 5-5000 ng/ml for compound A1. The curve was built with linear regression with weighing (1/X2). The linear regression analysis was performed by plotting the peak area ratio (y) against the concentration (x) in ng/mL.
Instrument Conditions. The LC-MS and mass spectrometry conditions for the compounds tested are shown below.
Results. The individual and average compound A1, A2, and A4 concentration-time data for IV and PO dosed groups are listed in Table 1, and graphically presented in FIG. 1.

[2] = cited from earlier work
[3] = molecular target: reticulocyte 15-human lipoxygenase type-1 (Homo sapiens, UniProt P16050); conditions: 12-LOX versus paralog; cited from earlier work
Sequence of reticulocyte 15-human lipoxygenase type-1 (P16050 whole entry): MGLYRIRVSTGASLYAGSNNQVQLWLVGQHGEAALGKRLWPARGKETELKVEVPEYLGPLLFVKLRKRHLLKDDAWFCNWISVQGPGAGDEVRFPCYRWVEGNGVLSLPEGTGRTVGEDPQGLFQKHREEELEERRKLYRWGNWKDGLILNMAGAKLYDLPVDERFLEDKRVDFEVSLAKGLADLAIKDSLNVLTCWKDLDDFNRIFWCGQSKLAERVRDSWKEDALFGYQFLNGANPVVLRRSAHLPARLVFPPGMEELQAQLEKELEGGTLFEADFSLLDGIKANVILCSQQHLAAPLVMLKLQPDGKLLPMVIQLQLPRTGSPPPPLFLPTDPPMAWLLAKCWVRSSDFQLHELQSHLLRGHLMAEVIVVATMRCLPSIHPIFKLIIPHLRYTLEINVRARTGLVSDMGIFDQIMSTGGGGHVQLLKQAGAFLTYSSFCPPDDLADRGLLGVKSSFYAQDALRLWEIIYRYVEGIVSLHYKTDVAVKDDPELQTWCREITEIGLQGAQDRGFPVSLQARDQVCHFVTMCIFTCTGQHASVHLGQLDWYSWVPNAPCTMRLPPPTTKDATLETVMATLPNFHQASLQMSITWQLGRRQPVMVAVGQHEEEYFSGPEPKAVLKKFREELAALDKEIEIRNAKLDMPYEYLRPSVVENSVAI

human COX-2 = molecular target: T1, human COX-2 (Homo sapiens, UniProt P35354); conditions: 12-LOX versus human COX-2; cited from earlier work
T1 sequence (P35354 18-604): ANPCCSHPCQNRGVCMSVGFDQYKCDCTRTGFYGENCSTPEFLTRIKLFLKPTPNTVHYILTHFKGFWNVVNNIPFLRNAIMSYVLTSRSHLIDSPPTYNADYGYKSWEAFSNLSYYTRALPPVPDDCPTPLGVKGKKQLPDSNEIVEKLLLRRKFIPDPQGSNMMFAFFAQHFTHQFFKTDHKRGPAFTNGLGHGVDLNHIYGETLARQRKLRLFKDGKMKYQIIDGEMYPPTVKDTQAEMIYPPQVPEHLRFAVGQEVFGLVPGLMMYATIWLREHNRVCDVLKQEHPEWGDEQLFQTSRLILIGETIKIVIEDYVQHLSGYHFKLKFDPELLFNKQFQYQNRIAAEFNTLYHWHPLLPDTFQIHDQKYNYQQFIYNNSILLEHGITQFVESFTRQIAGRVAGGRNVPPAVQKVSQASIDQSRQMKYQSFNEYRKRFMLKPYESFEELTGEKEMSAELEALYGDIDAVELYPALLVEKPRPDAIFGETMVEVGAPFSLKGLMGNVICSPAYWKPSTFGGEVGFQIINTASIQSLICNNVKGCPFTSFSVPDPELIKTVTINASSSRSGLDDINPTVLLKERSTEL

5-human lipoxygenase = molecular target: T2, 5-human lipoxygenase (Homo sapiens, UniProt P09917); conditions: 12-LOX versus paralog; cited from earlier work
T2 sequence (P09917 1-674): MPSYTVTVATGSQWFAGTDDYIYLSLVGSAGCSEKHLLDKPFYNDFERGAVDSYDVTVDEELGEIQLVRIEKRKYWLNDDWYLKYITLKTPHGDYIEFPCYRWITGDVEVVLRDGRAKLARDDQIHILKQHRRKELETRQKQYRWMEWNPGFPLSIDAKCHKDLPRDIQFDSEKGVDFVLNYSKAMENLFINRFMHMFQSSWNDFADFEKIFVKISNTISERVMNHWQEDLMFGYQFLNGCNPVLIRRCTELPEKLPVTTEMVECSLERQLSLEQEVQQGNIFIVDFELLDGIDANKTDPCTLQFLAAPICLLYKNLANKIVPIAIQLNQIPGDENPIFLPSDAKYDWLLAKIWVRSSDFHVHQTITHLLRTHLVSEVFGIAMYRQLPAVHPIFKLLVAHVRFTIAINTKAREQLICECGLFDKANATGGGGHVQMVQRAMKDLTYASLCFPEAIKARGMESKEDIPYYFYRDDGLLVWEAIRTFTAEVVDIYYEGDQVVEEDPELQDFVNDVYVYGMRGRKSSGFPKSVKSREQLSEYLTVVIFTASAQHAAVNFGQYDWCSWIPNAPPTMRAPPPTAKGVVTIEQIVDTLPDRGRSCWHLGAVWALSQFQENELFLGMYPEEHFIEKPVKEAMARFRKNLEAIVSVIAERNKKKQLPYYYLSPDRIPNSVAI

[4] = in vivo; cited from earlier work
[5] = molecular target: T3, bovine cyclooxygenase (“COX”)-1 (Bos taurus, UniProt O62664); conditions: 12-LOX versus bovine COX-1; cited from earlier work
T3 sequence (O62664 25-600): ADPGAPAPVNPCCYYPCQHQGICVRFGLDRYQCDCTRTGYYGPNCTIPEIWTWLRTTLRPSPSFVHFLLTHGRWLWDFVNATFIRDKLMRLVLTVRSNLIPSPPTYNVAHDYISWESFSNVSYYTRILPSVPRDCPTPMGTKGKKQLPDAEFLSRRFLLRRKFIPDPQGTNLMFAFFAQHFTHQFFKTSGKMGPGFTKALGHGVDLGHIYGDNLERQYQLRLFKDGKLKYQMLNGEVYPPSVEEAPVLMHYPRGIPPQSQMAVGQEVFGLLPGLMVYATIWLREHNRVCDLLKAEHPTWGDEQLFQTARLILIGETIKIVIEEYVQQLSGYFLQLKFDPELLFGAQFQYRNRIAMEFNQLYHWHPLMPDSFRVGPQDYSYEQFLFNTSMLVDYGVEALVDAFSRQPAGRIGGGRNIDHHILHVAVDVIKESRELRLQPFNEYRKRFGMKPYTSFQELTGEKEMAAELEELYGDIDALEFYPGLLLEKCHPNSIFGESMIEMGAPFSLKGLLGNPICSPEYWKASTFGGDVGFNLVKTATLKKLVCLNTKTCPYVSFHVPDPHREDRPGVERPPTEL

[6] = tested on: thrombus formation and vessel occlusion; conditions: cited from earlier work
[7] = molecular target: T4, epithelial 15-human lipoxygenase type-2 (Homo sapiens, UniProt O15296); conditions: 12-LOX versus paralog; cited from earlier work
T4 sequence (O15296 1-676): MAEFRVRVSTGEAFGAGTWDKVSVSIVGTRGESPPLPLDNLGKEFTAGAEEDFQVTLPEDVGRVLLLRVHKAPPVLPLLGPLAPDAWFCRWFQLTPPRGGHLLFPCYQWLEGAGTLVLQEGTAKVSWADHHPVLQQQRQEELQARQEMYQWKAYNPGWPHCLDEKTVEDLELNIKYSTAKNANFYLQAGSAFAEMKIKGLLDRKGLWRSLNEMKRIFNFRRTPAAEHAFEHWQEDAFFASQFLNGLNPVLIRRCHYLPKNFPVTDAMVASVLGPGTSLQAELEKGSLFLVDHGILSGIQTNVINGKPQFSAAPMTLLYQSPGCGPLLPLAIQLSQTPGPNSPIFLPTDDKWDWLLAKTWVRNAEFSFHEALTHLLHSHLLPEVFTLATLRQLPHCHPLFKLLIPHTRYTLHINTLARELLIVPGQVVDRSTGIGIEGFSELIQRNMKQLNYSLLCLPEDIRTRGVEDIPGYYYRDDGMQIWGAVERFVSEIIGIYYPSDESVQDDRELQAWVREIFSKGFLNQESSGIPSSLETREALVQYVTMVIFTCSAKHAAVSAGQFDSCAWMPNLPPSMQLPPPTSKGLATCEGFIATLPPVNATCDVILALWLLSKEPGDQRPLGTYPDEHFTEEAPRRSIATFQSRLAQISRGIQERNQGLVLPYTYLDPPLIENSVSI

[8] = cited from earlier work; remark: listed apart in the source
[9] = iv, IV 30 mg/kg, 2 h, n=3 (outliers excluded), read-out: Concentration in Plasma, Mean
[10] = iv, IV 30 mg/kg, 2 h, read-out: Concentration in Plasma, Mouse 1
[11] = iv, IV 30 mg/kg, 2 h, read-out: Concentration in Plasma, Mouse 2
[12] = iv, IV 30 mg/kg, 2 h, read-out: Concentration in Plasma, Mouse 3
[13] = iv, IV 30 mg/kg, 4 h, read-out: Concentration in Plasma, Mouse 1
[14] = iv, IV 30 mg/kg, 4 h, read-out: Concentration in Plasma, Mouse 3
[15] = iv, IV 30 mg/kg, 7 h, n=3 (outliers excluded), read-out: Concentration in Plasma, Mean
[16] = iv, IV 30 mg/kg, 7 h, read-out: Concentration in Plasma, Mouse 1
[17] = iv, IV 30 mg/kg, 7 h, read-out: Concentration in Plasma, Mouse 2
[18] = iv, IV 30 mg/kg, 7 h, read-out: Concentration in Plasma, Mouse 3
[19] = po, PO 30 mg/kg, 2 h, n=3 (outliers excluded), read-out: Concentration in Plasma, Mean
[20] = po, PO 30 mg/kg, 2 h, read-out: Concentration in Plasma, Mouse 3
[21] = po, PO 30 mg/kg, 4 h, n=3 (outliers excluded), read-out: Concentration in Plasma, Mean
[22] = po, PO 30 mg/kg, 4 h, read-out: Concentration in Plasma, Mouse 1
[23] = po, PO 30 mg/kg, 4 h, read-out: Concentration in Plasma, Mouse 3
[24] = po, PO 30 mg/kg, 7 h, n=3 (outliers excluded), read-out: Concentration in Plasma, Mean
[25] = po, PO 30 mg/kg, 7 h, read-out: Concentration in Plasma, Mouse 1
[26] = po, PO 30 mg/kg, 7 h, read-out: Concentration in Plasma, Mouse 2

| concentration at 2 h [1, 9] | concentration at 2 h [1, 10] | concentration at 2 h [1, 11] | concentration at 2 h [1, 12] | concentration at 4 h [1, 13] | concentration at 4 h [1, 14] | concentration at 7 h [1, 15] | concentration at 7 h [1, 16] | concentration at 7 h [1, 17] | concentration at 7 h [1, 18] | concentration at 2 h [1, 19] | concentration at 2 h [1, 20] | concentration at 4 h [1, 21] | concentration at 4 h [1, 22] | concentration at 4 h [1, 23] | concentration at 7 h [1, 24] | concentration at 7 h [1, 25] | concentration at 7 h [1, 26] | SMILES | also measured |
| --- | --- | --- | --- | --- | --- | --- | --- | --- | --- | --- | --- | --- | --- | --- | --- | --- | --- | --- | --- |
| 0.199 µg/mL | 0.144 µg/mL | 0.333 µg/mL | 0.118 µg/mL | 0.127 µg/mL | 0.096 µg/mL | 0.031 µg/mL | 0.0493 µg/mL | 0.0164 µg/mL | 0.0274 µg/mL | 0.145 µg/mL | 0.23 µg/mL | 0.0743 µg/mL | 0.0389 µg/mL | 0.0812 µg/mL | 0.0913 µg/mL | 0.106 µg/mL | 0.0768 µg/mL | COc1cccc(CNc2ccc(S(=O)(=O)Nc3cccc(C(F)(F)F)c3)cc2)c1O [Compound A2] | Concentration in Plasma, Mouse 2 ([1]; IV 30 mg/kg, 4 h): *1369.6 ng/ml; Concentration in Plasma, Mouse 2 ([1]; PO 30 mg/kg, 2 h): *6042.8 ng/ml; Concentration in Plasma, Mouse 3 ([1]; PO 30 mg/kg, 7 h): *301.8 ng/ml; concentration at 4 h ([1]; iv, IV 30 mg/kg, 4 h, n=3 (outliers excluded), read-out: Concentration in Plasma, Mean): 0.112 µg/mL; concentration at 2 h ([1]; po, PO 30 mg/kg, 2 h, read-out: Concentration in Plasma, Mouse 1): 0.059 µg/mL; concentration at 4 h ([1]; po, PO 30 mg/kg, 4 h, read-out: Concentration in Plasma, Mouse 2): 0.103 µg/mL |
| 0.113 µg/mL | 0.0942 µg/mL | 0.172 µg/mL | 0.071 µg/mL | 0.0208 µg/mL | 0.0206 µg/mL | 0.0102 µg/mL | 0.0241 µg/mL | 0.0056 µg/mL | 0.0008 µg/mL | 5.26 µg/mL | 0.41 µg/mL | 0.0336 µg/mL | 0.0334 µg/mL | 0.0338 µg/mL | 0.029 µg/mL | 0.0332 µg/mL | 0.0229 µg/mL | COc1cccc(CNc2ccc(S(=O)(=O)Nc3cccc(C4(C(F)(F)F)CC4)c3)cc2)c1O [Compound A4, 4-((2-hydroxy-3-methoxybenzyl)amino)-N-(3-(1-(trifluoromethyl)cyclopropyl)phenyl)benzenesulfonamide] | Concentration in Plasma, Mouse 1 ([1]; PO 30 mg/kg, 2 h): *20.2 ng/ml; Concentration in Plasma, Mouse 2 ([1]; PO 30 mg/kg, 4 h): *127.5 ng/ml; concentration at 4 h ([1]; iv, IV 30 mg/kg, 4 h, read-out: Concentration in Plasma, Mouse 2): 0.0288 µg/mL; concentration at 2 h ([1]; po, PO 30 mg/kg, 2 h, read-out: Concentration in Plasma, Mouse 2): 0.642 µg/mL; concentration at 7 h ([1]; po, PO 30 mg/kg, 7 h, read-out: Concentration in Plasma, Mouse 3): 0.0309 µg/mL |
|  |  |  |  |  |  |  |  |  |  |  |  |  |  |  |  |  |  | COc1cccc(CNc2ccc(S(=O)(=O)Nc3nc4ccccc4s3)cc2)c1O [ML355] | tolerance in preclinical studies [2]: relatively good tolerance; selectivity versus reticulocyte 15-human lipoxygenase type-1 [3]: > 50 fold; selectivity versus human COX-2 (human COX-2): > 100 fold; selectivity versus 5-human lipoxygenase (5-human lipoxygenase): > 50 fold; pharmacokinetics [4]: reasonable pharmacokinetics; selectivity versus bovine COX-1 [5]: > 100 fold; thrombus formation and vessel occlusion in vivo [6]: impair thrombus formulation and vessel occlusion in vivo; effects on hemostasis ([6]; in vivo): minimal affects on hemostasis; selectivity versus epithelial 15-human lipoxygenase type-2 [7]: > 50 fold; solubility [8]: limited solubility |
